Values quoted from earlier work as cited in patent publication US5478816A, “Liquid vitamin formulations containing vitamin D esters” (Bristol-Myers Squibb Company, priority 1993, dated 1995).
Where two headings read alike, the source gives them in different places.

Conditions: cited from earlier work

Row | Compound | stability (in corn oil, propylene glycol, and milk) | stability (in propylene glycol when diluted in water) | stability (at a mid-pH) | stability (in an alkaline medium or in the presence of light and air) | stability (in an aqueous environment) | stability (in the presence of minerals)
1 | C=C1CC[C@H](O)C/C1=C/C=C1\CCC[C@]2(C)[C@@H]([C@H](C)/C=C/[C@H](C)C(C)C)CC[C@@H]12 [Vitamin D2] | stable | deteriorate |  |  |  | 
2 | vitamin D |  |  | stable | slowly destroyed | unstable | unstable
